Test results from ChEMBL document CHEMBL4270488, “Antibacterial Compounds from Marine Bacteria, 2010-2015” (J Nat Prod, 2017).
Values after ≈ are worked out from the molar mass of the structure shown.

Assays:
Staphylococcus aureus [1] = assay: Antibacterial activity against Staphylococcus aureus ATCC 29213; assay type: functional
Bacillus subtilis [2] = assay: Antibacterial activity against Bacillus subtilis SCSIO BS01; assay type: functional
Bacillus thuringiensis = assay: Antibacterial activity against Bacillus thuringiensis SCSIO BT01; assay type: functional
Pseudomonas aeruginosa [3] = assay: Antibacterial activity against Pseudomonas aeruginosa incubated for 24 hrs by standard broth dilution assay; assay type: functional
Escherichia coli [4] = assay: Antibacterial activity against Escherichia coli incubated for 24 hrs by standard broth dilution assay; assay type: functional
Bacillus subtilis [5] = assay: Antibacterial activity against Bacillus subtilis incubated for 24 hrs by standard broth dilution assay; assay type: functional
Staphylococcus aureus [6] = assay: Antibacterial activity against Staphylococcus aureus incubated for 24 hrs by standard broth dilution assay; assay type: functional
[7] = Antibacterial activity Bacillus pumilus against by broth dilution assay; assay type: functional
Pseudomonas aeruginosa [8] = assay: Antibacterial activity against Pseudomonas aeruginosa by broth dilution assay; assay type: functional
Bacillus subtilis [9] = assay: Antibacterial activity against Bacillus subtilis CMCC63501; assay type: functional
Bacillus subtilis [10] = assay: Antibacterial activity against Bacillus subtilis ATCC […] incubated for 16 hrs; assay type: functional
[11] = test system: Mycobacterium tuberculosis; assay: Antibacterial activity against Mycobacterium tuberculosis H37Rv ATCC 27294 incubated […]; assay type: functional
Staphylococcus aureus [12] = assay: Antibacterial activity against Staphylococcus aureus incubated for 18 hrs; assay type: functional
[13] = test system: Yersinia pseudotuberculosis; assay: Inhibition of type 3 secretion system protein secretion in Yersinia pseudotuberculosis at 30 ug/ml incubated for 2 hrs by SDS-PAGE and densitometric analysis
Enterococcus faecalis = assay: Antibacterial activity against Enterococcus faecalis ATCC 29212; assay type: functional
Staphylococcus aureus [14] = assay: Antibacterial activity against methicillin-resistant Staphylococcus aureus; assay type: functional
Escherichia coli [15] = assay: Antibacterial activity against Escherichia coli; assay type: functional
Bacillus subtilis [16] = assay: Antibacterial activity against Bacillus subtilis DSM 347 incubated for 5 hrs by resazurin dye reduction based assay; assay type: functional, organism-based; details: DSM 347, 5 h
[17] = test system: Staphylococcus epidermidis; assay: Antibacterial activity against Staphylococcus epidermidis DSM 20044 incubated for 5 hrs by resazurin dye reduction based assay; assay type: functional, organism-based; details: DSM 20044, 5 h

Q: With `CC(C)=CCC/C(C)=C/C[C@@]12OC(C)(C)[C@H](Cl)C=C1C(=O)c1c(O)cc(O)cc1C2=O` as the compound, how does the MIC (Staphylococcus aureus [1]) read?
A: The MIC was 4 to 32 µg/mL (≈ 8.99 to 71.9 µM).

Q: What about the MIC (Bacillus subtilis [2]) of the same compound?
A: Its MIC is 4 to 32 µg/mL (≈ 8.99 to 71.9 µM).

Q: And the MIC (Bacillus thuringiensis)?
A: Its MIC is 4 to 32 µg/mL (≈ 8.99 to 71.9 µM).

Q: With `C[C@@H]1CCC/C=C/[C@@H]2O[C@@H](C/C=C\C=C\[C@H](O[C@@H]3O[C@H](CO)[C@@H](O)[C@H](O)[C@H]3O)C/C=C/C=C\C(=O)O1)C[C@@H](O)[C@H]2O` as the compound, how does the MIC (Pseudomonas aeruginosa [3]) read?
A: The MIC was 0.02 to 0.13 µg/mL (≈ 0.0344 to 0.224 µM).

Q: What about the MIC (Escherichia coli [4]) of the same compound?
A: Its MIC is 0.02 to 0.13 µg/mL (≈ 0.0344 to 0.224 µM).

Q: And the MIC (Bacillus subtilis [5])?
A: Its MIC is 0.02 to 0.13 µg/mL (≈ 0.0344 to 0.224 µM).

Q: What about the MIC (Staphylococcus aureus [6]) of the same compound?
A: Its MIC is 0.02 to 0.13 µg/mL (≈ 0.0344 to 0.224 µM).

Q: What does the source list for `CCn1cc(C(=O)O)c(=O)c2ccc(C)nc21` [NALIDIXIC ACID]?
A: MIC [7]: 1250 to 1500 µg/mL (≈ 5380 to 6460 µM); MIC (Pseudomonas aeruginosa [8]): 1250 to 1500 µg/mL (≈ 5380 to 6460 µM)

Q: With `COC(=O)N[C@H]1[C@@H](C)O[C@@H](O[C@H]2C/C=C(\C)[C@@H]3C=C[C@@H]4[C@@H](O[C@H]5C[C@@H](O[C@H]6C[C@@H](O)[C@@H](O[C@@H]7C[C@@H](O)[C@@H](OC)[C@H](C)O7)[C@H](C)O6)[C@@H](O)[C@H](C)O5)[C@@H](C)C[C@H](C)[C@H]4[C@]3(C)C(=O)C3=C(O)[C@@]4(C[C@@H](C)C(C=O)=C[C@H]4/C=C/2C)OC3=O)C[C@]1(C)[N+](=O)[O-]` as the compound, how does the MIC (Bacillus subtilis [9]) read?
A: Its MIC is 1.6 to 3.1 µg/mL (≈ 1.35 to 2.62 µM).

Q: What about the MIC (Staphylococcus aureus [1]) of the same compound?
A: Its MIC is 6.2 to 50 µg/mL (≈ 5.23 to 42.2 µM).

Q: What does the source list for `COC(=O)N[C@H]1[C@@H](C)O[C@@H](O[C@H]2C/C=C(\C)[C@@H]3C=C[C@@H]4[C@@H](O[C@H]5C[C@@H](O[C@H]6C[C@@H](O)[C@@H](O[C@@H]7C[C@@H](O)[C@@H](OC)[C@H](C)O7)[C@H](C)O6)[C@@H](O)[C@H](C)O5)[C@@H](C)C[C@H](C)[C@H]4[C@]3(C)C(=O)C3=C(O)[C@@]4(C[C@@H](C)C(CO)=C[C@H]4/C=C/2C)OC3=O)C[C@]1(C)N`?
A: MIC (Bacillus subtilis [10]): 1.5 to 12 µg/mL (≈ 1.3 to 10.4 µM); MIC [11]: 16 to 32 µg/mL (≈ 13.8 to 27.6 µM)

Q: With `CN(C)[C@@H]1C(O)=C(C(N)=O)C(=O)[C@@]2(O)C(O)=C3C(=O)c4c(O)cccc4[C@@](C)(O)[C@H]3C[C@@H]12` [TETRACYCLINE] as the compound, how does the MIC [7] read?
A: The MIC was 40 to 80 µg/mL (≈ 90 to 180 µM).

Q: And the MIC (Pseudomonas aeruginosa [8])?
A: The MIC was 40 to 80 µg/mL (≈ 90 to 180 µM).

Q: For `COC(=O)[C@@]1(C)O[C@@H](C)[C@H](/C=C/C=C/C=C/C(=O)O[C@H]2CC[C@H](c3ccc4c(c3O)C(=O)C3=C(C4=O)[C@@]4(O)C(=O)[C@H](O)[C@](C)(O)C[C@@]4(O)C=C3)O[C@@H]2C)O1`, which MIC (Staphylococcus aureus [12]) is on record?
A: Its MIC is 2 to 6 µg/mL (≈ 2.66 to 7.99 µM).

Q: With `C/C=C(\C)[C@H](O)[C@H](C)/C=C(C)/C=C/C/C(C)=C/Cc1nc(OC)c(OC)c(O)c1C` as the compound, how does the inhibition [13] read?
A: The inhibition was 65%.

Q: For `C/C(C=O)=C/CC/C(C)=C/C[C@@]12OC(C)(C)[C@H](Cl)C[C@]1(Cl)C(=O)c1c(O)cc(O)cc1C2=O`, which MIC (Staphylococcus aureus [1]) is on record?
A: The MIC was 4 to 32 µg/mL (≈ 8.07 to 64.6 µM).

Q: And the MIC (Bacillus subtilis [2])?
A: Its MIC is 4 to 32 µg/mL (≈ 8.07 to 64.6 µM).

Q: What about the MIC (Bacillus thuringiensis) of the same compound?
A: The MIC was 4 to 32 µg/mL (≈ 8.07 to 64.6 µM).

Q: Which MIC (Enterococcus faecalis) does the source give for `CC[C@]1(O)C[C@@]2(O)c3c(c(C)cc(=O)n3C)C(=O)c3c(C)cc(=O)n1c32` here?
A: Its MIC is 1 to 4 µg/mL (≈ 2.81 to 11.2 µM).

Q: What about the MIC (Staphylococcus aureus [1]) of the same compound?
A: The MIC was 1 to 4 µg/mL (≈ 2.81 to 11.2 µM).

Q: What about the MIC (Bacillus thuringiensis) of the same compound?
A: Its MIC is 1 to 4 µg/mL (≈ 2.81 to 11.2 µM).

Q: Which inhibition [13] does the source give for `C/C=C(\C)[C@H](C)[C@H](C)/C=C(C)/C=C/C/C(C)=C/Cc1cc(O)cc(OC)n1` here?
A: The inhibition was 45%.

Q: What does the source list for `C/C(=C\C(=O)OCCCCCCCC(=O)Nc1c2sscc-2[nH]c1=O)C[C@@H]1OC[C@H](C[C@@H]2O[C@H]2[C@@H](C)[C@H](C)O)[C@@H](O)[C@H]1O`?
A: MIC (Staphylococcus aureus [14]): ≤ 0.03 µg/mL; MIC (Escherichia coli [15]): 0.5 µg/mL (≈ 0.78 µM)

Q: Which results are given for `Cc1cc(=O)n(C)c2c1C(=O)c1c(C)cc(=O)n3c1[C@@]2(O)C[C@]3(C)O`?
A: MIC (Enterococcus faecalis): 1 to 4 µg/mL (≈ 2.92 to 11.7 µM); MIC (Staphylococcus aureus [1]): 1 to 4 µg/mL (≈ 2.92 to 11.7 µM); MIC (Bacillus thuringiensis): 1 to 4 µg/mL (≈ 2.92 to 11.7 µM)

Q: For `C=C1CC[C@H](Cl)C(C)(C)[C@@H]1C[C@@]12OC(C)(C)[C@H](Cl)C[C@]1(Cl)C(=O)c1c(O)cc(O)cc1C2=O`, which MIC (Staphylococcus aureus [1]) is on record?
A: The MIC was ≤ 2 µg/mL.

Q: What about the MIC (Bacillus subtilis [2]) of the same compound?
A: Its MIC is ≤ 2 µg/mL.

Q: And the MIC (Bacillus thuringiensis)?
A: The MIC was ≤ 2 µg/mL.

Q: Which MIC (Staphylococcus aureus [12]) does the source give for `C[C@@H]1O[C@](C)(C(=O)O)O[C@H]1/C=C/C=C/C=C/C(=O)O[C@H]1CC[C@H](c2ccc3c(c2O)C(=O)c2ccc4c(c2C3=O)C(=O)[C@H](O)[C@](C)(O)C4)O[C@@H]1C` here?
A: The MIC was 2 to 6 µg/mL (≈ 2.85 to 8.54 µM).

Q: For `CC1(C)S[C@@H]2[C@H](NC(=O)[C@H](N)c3ccccc3)C(=O)N2[C@H]1C(=O)O` [AMPICILLIN], which MIC (Bacillus subtilis [9]) is on record?
A: Its MIC is 1.6 to 3.1 µg/mL (≈ 4.58 to 8.87 µM).

Q: With `CCC(C)CCC[C@H](C(=O)OC)[C@@H](O)c1cccc2nc3c(C(=O)O)cccc3nc12` (stereo partly specified) as the compound, how does the IC50 (Bacillus subtilis [16]) read?
A: Its IC50 is 9.1 µg/mL (≈ 21.4 µM).

Q: And the IC50 [17]?
A: Its IC50 is 6.1 µg/mL (≈ 14.4 µM).
